Among the data in ChEMBL document CHEMBL3407365, “Pachymodulin, a new functional formyl peptide receptor 2 peptidic ligand isolated from frog skin has Janus-like immunomodulatory capacities” (J Med Chem, 2015) are Activity, EC50 and MIC values, retold here.

pEC50: −log10 of the molar value. Active and inactive are the calls of the source. The calls are words filed in the database; no cut-off is given here. Bounds are passed on as bounds.

The target of series [1] is T1, N-formyl peptide receptor 2 (Homo sapiens) (UniProt P25090).
T1 sequence (whole entry): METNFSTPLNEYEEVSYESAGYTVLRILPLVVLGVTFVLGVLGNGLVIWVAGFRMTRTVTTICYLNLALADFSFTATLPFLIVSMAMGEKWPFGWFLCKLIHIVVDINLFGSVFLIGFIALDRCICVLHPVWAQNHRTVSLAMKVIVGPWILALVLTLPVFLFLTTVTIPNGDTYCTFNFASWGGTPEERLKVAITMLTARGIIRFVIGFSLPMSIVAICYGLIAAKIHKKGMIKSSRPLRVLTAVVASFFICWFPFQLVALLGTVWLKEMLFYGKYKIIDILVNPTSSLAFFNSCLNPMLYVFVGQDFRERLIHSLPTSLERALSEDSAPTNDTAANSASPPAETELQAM
Kind of series: Induction of calcium release in human FPR2 receptor-expressed HEK cell at 10 uM measured after second challenge by cytosolic-free calcium assay. The conditions noted are these: HEK293. The format is functional, cell-based.

Series [2] relates to Neutrophil. As to the kind of experiment: Induction of […]-induced migration in human neutrophils preincubated at 10 uM after 45 mins by chemotaxis assay. It counts as functional, cell-based.
Series [3] deals with T1, N-formyl peptide receptor 2 (Homo sapiens). Kind of series: Induction of calcium release in human FPR2 receptor-expressed HEK cell assessed as calcium release through Cav1.2 channel at 10 uM by cytosolic-free calcium assay in presence of 30 uM ATP. It counts as functional, cell-based. The conditions noted are these: HEK293.
Series [4] has as its system Neutrophil. As to the kind of experiment: Induction of ERK1/2-mediated directional migration in human neutrophils assessed as enzyme phosphorylation at 10 uM by chemotaxis assay. It counts as functional, cell-based. The conditions noted are these: TDE = time-dependent effect.
The test system of series [5] is Mus musculus. Kind of series: Induction of leukocyte recruitment in C57BL/6 mouse assessed as increase in number of neutrophils in peritoneal cavity at 40 ug, ip tid 4 hr before pretreated with 3% thioglycollate relative to NaCl treated control. It counts as functional, organism-based.
Series [6] has as its system Mus musculus. As to the kind of experiment: Induction of leukocyte recruitment in C57BL/6 mouse assessed as increase in number of monocytes in peritoneal cavity at 40 ug, ip tid relative to NaCl treated control. The format is functional, organism-based.
The target of series [7] is T2, Formyl peptide receptor-related sequence 1 (Mus musculus) (UniProt O08790).
T2 sequence (whole entry): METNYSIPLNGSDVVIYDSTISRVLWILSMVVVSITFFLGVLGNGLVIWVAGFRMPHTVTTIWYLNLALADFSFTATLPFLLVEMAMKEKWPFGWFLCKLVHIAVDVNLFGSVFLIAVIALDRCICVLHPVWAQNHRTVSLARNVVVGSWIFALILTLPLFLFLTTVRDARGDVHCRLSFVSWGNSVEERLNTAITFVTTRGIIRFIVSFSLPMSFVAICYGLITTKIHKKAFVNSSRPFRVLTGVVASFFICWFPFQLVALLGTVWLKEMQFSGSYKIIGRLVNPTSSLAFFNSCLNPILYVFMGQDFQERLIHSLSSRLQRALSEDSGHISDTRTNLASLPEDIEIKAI
Kind of series: Induction of mouse FPR2 receptor-expressed HEK cell migration at 10 uM. The note with it: HEK293.

Series [8] relates to Neutrophil. As to the kind of experiment: Induction of ERK1/2-mediated directional migration in human neutrophils assessed as fluorescence of calcein at 10 uM after 45 mins by chemotaxis assay in presence of natural compound. It counts as functional, cell-based.
In series [9] the test system is Neutrophil. Kind of series: Induction of ERK1/2-mediated directional migration in human neutrophils assessed as fluorescence of calcein at 10 uM after 45 mins by chemotaxis assay in presence of SB202190 MAPK inhibitor. The format is functional, cell-based.
Series [10] has as its system HEK293. Kind of series: Induction of HEK cell migration at 10 uM. The conditions noted are these: Homo sapiens. The format is functional, cell-based.
Series [11] relates to Monocyte. Kind of series: Induction of ERK1/2-mediated directional migration in human monocytes assessed as fluorescence of calcein at 10 uM after 45 mins by chemotaxis assay. It counts as functional, cell-based.
Series [12] relates to Neutrophil. As to the kind of experiment: Induction of ERK1/2-mediated directional migration in human neutrophils assessed as fluorescence of calcein at 10 uM after 45 mins by chemotaxis assay in presence of pertussis toxin. It counts as functional, cell-based.
Series [13] relates to Mus musculus. Kind of series: Induction of leukocyte recruitment in C57BL/6 mouse assessed as increase in number of monocytes in peritoneal cavity at 40 ug, ip tid 4 hr before pretreated with 3% thioglycollate relative to NaCl treated control. The format is functional, organism-based.
Series [14] deals with Mus musculus. Kind of series: Induction of leukocyte recruitment in C57BL/6 mouse assessed as increase in number of macrophages in peritoneal cavity at 40 ug, ip tid 4 hr before pretreated with 3% thioglycollate relative to NaCl treated control. It counts as functional, organism-based.
The test system of series [15] is Monocyte. Kind of series: Induction of ERK1/2-mediated directional migration in mouse monocytes assessed as fluorescence of calcein at 10 uM after 45 mins by chemotaxis assay. The format is functional, cell-based.
The test system of series [16] is Mus musculus. Kind of series: Induction of leukocyte recruitment in C57BL/6 mouse assessed as increase in number of neutrophils in blood at 40 ug, ip tid 4 hr before pretreated with 3% thioglycollate relative to NaCl treated control. The format is functional, organism-based.
Series [17] relates to Neutrophil. Kind of series: Induction of ERK1/2-mediated directional migration in mouse neutrophils assessed as fluorescence of calcein at 10 uM after 45 mins by chemotaxis assay in presence of natural compound. The format is functional, cell-based.
The test system of series [18] is Monocyte. Kind of series: Induction of ERK1/2-mediated directional migration in human monocytes assessed as fluorescence of calcein at 10 uM after 45 mins by chemotaxis assay in presence of natural compound. The format is functional, cell-based.
The test system of series [19] is Mus musculus. As to the kind of experiment: Induction of leukocyte recruitment in C57BL/6 mouse assessed as increase in number of monocytes in blood at 40 ug, ip tid relative to NaCl treated control. The format is functional, organism-based.
The test system of series [20] is T-cell. As to the kind of experiment: Induction of ERK1/2-mediated directional migration in human T cell assessed as fluorescence of calcein at 10 uM after 45 mins by chemotaxis assay in presence of natural compound. The format is functional, cell-based.
The subject of series [21] is Neutrophil. Kind of series: Induction of migration in human neutrophils at 10 uM after 45 mins by chemotaxis assay in presence of preincubation of 0.1 uM fMLP. The format is functional, cell-based.
Series [22] relates to Neutrophil. As to the kind of experiment: Induction of ERK1/2-mediated directional migration in mouse neutrophils assessed as fluorescence of calcein at 10 uM after 45 mins by chemotaxis assay. The format is functional, cell-based.
Series [23] relates to Mus musculus. As to the kind of experiment: Induction of leukocyte recruitment in C57BL/6 mouse assessed as increase in number of monocytes in blood at 40 ug, ip tid 4 hr before pretreated with 3% thioglycollate relative to NaCl treated control. The format is functional, organism-based.
A short description of series [24]: Hemolytic activity in fresh rat erythrocytes assessed as optical density after 60 mins. It counts as ADME, cell-based. The note with it: erythrocyte, 1 h.
The test system of series [25] is HEK293. Kind of series: Induction of calcium release in HEK cell at 10 uM by cytosolic-free calcium assay. The format is functional, cell-based. The conditions noted are these: Homo sapiens.
The target of series [26] is T2, Formyl peptide receptor-related sequence 1 (Mus musculus). As to the kind of experiment: (§1) Induction of calcium release in mouse FPR2 receptor-expressed HEK cell by cytosolic-free calcium assay. The format is functional. The conditions noted are these: HEK293.
In series [27] the target is T3, Formyl peptide receptor-related sequence 1 (Mus musculus, UniProt O08790).
T3 sequence (O08790 whole entry): T2 sequence (whole entry)
The description is as §1. The format is functional, HEK293.

Series [28] deals with Neutrophil. As to the kind of experiment: Induction of migration in human neutrophils at 10 uM after 45 mins by chemotaxis assay in presence of preincubation of 10 uM fMLP. The format is functional, cell-based.
For series [29], the target named is T4, N-formyl peptide receptor 2 (Homo sapiens, UniProt P25090).
T4 sequence (P25090 whole entry): T1 sequence (whole entry)
Kind of series: (§2) Induction of calcium release in human FPR2 receptor-expressed HEK cell by cytosolic-free calcium assay. It counts as functional, cell-based, HEK293.

Series [30] has as its target T1, N-formyl peptide receptor 2 (Homo sapiens). The series is described as §2. It counts as functional, cell-based. The conditions noted are these: HEK293.
The next series concerns Staphylococcus aureus. As to the kind of experiment: Antibacterial activity against Staphylococcus aureus ATCC 25923. It counts as functional.
Series [31] relates to Neutrophil. As to the kind of experiment: Induction of migration in human neutrophils preincubated at 10 uM after 45 mins by chemotaxis assay in presence of 0.1 uM fMLP. The format is functional, cell-based.
Series [32] concerns Neutrophil. Kind of series: Induction of migration in human neutrophils preincubated at 10 uM after 45 mins by chemotaxis assay in presence of 10 uM fMLP. The format is functional, cell-based.
In series [33] the test system is T-cell. As to the kind of experiment: Induction of ERK1/2-mediated directional migration in human T cell assessed as fluorescence of calcein at 10 uM after 45 mins by chemotaxis assay. It counts as functional, cell-based.
The target in series [34] is T1, N-formyl peptide receptor 2 (Homo sapiens). Kind of series: Binding affinity to human FPR2 receptor expressed in HEK cells assessed as heat release at 155 nmol by isothermal titration calorimetry. The note with it: HEK293.
The subject of series [35] is Monocyte. As to the kind of experiment: Induction of ERK1/2-mediated directional migration in mouse monocytes assessed as fluorescence of calcein at 10 uM after 45 mins by chemotaxis assay in presence of natural compound. It counts as functional, cell-based.
For series [36], the system named is Neutrophil. Kind of series: Induction of ERK1/2-mediated directional migration in human neutrophils assessed as fluorescence of calcein at 10 uM after 45 mins by chemotaxis assay. The format is functional, cell-based.
In series [37] the test system is Mus musculus. As to the kind of experiment: Induction of leukocyte recruitment in C57BL/6 mouse assessed as increase in number of neutrophils in peritoneal cavity at 40 ug, ip tid relative to NaCl treated control. It counts as functional, organism-based.
In series [38] the test system is Neutrophil. Kind of series: Induction of ERK1/2-mediated directional migration in human neutrophils assessed as fluorescence of calcein at 10 uM after 45 mins by chemotaxis assay in presence of PD98059 MEK1/2 inhibitor. It counts as functional, cell-based.
Series [39] relates to Mus musculus. As to the kind of experiment: Induction of leukocyte recruitment in C57BL/6 mouse assessed as increase in number of macrophages in blood at 40 ug, ip tid 4 hr before pretreated with 3% thioglycollate relative to NaCl treated control. The format is functional, organism-based.
The target of series [40] is T1, N-formyl peptide receptor 2 (Homo sapiens). As to the kind of experiment: Induction of human FPR2 receptor-expressed HEK cell migration at 10 uM. The conditions noted are these: HEK293.
Series [41] has as its system Mus musculus. As to the kind of experiment: Induction of leukocyte recruitment in C57BL/6 mouse assessed as increase in number of neutrophils in blood at 40 ug, ip tid relative to NaCl treated control. The format is functional, organism-based.
In series [42] the test system is Escherichia coli. As to the kind of experiment: Induction of membrane disruption in Escherichia coli assessed as bacterial leakage by measuring Gal-ONp hydrolysis. The format is organism-based.
For series [43], the system named is Escherichia coli. As to the kind of experiment: Antibacterial activity against Escherichia coli ATCC 11775. The format is functional.

As to `CSCC[C@H](NC=O)C(=O)N[C@@H](CC(C)C)C(=O)N[C@@H](Cc1ccccc1)C(=O)O`, the outcome (in series [1]; in the series on Neutrophil [2]) was inactive. Moreover, in series [3], the outcome was Active.

As for H-SSLSKL-OH, the Activity entry with Neutrophil [4] is “tde”; in series [24], “Non-toxic”; in series [26], “Dose-dependent effect”; in series [30] it was “Dose-dependent effect”; in the series on Escherichia coli [42], “Non-toxic”. For the same molecule, the outcome with Mus musculus [5], with Neutrophil [8], with Neutrophil [9], in the series on HEK293 [10], with Neutrophil [12] and in the series with Mus musculus [13] was inactive. Besides, the result with Mus musculus [14], with Mus musculus [16], in the series on Neutrophil [17], with Monocyte [18], with T-cell [20] and in the series with Neutrophil [21] was inactive. Further, the result (in the series on Mus musculus [23]; in the series with HEK293 [25]; in [1]; with Monocyte [35]; in the series with Neutrophil [38]; with Mus musculus [39]) was inactive. Also, the result (in the series on Mus musculus [6]; in [7]; with Monocyte [11]; in the series on Monocyte [15]; in the series with Mus musculus [19]; in the series on Neutrophil [22]) was Active. Besides, the result (in the series on Neutrophil [28]; in the series on Neutrophil [31]; in the series on Neutrophil [32]; in the series on T-cell [33]; in series [34]; in [3]) was Active. Also, the result (in the series with Neutrophil [36]; in the series with Mus musculus [37]; in [40]; in the series on Mus musculus [41]) was Active. Further, the pEC50 (in general, −log10 of the EC50, conventionally taken in molar units) in [27] is 5.05; in series [29], 5.12. Also, the MIC against Staphylococcus aureus and against Escherichia coli [43] was greater than 100 µM in each case.
